Patent US9358096B2, “Methods of treatment with drug eluting stents with prolonged local elution profiles with high local concentrations and low systemic concentrations” (Abbott Laboratories, priority 2007, dated 2016)
Where two headings read alike, the source gives them in different places.

Experiment: everolimus arterial tissue concentration in and next to the stented vessel
Type: in vivo, swine
Conditions: for Tmax: pig; for concentration at 3 days / concentration at 7 days / concentration at 28 days / concentration at 56 days / concentration at 90 days / concentration at 14 days: swine
[1] = 8×28 mm stent, 1070 μg everolimus (first aspect, matches group 1)
[2] = 10×28 mm stent, 1070 μg everolimus
[3] = 1070 μg, 8.0×28 mm stent, group 2, 1070 μg Lot #2, read-out: drug concentration in tissue proximal to stented region
[4] = 3209 μg, 8.0×28 mm stent, group 3, 3209 μg, read-out: drug concentration in tissue distal to stented region
[5] = 3209 μg, 8.0×28 mm stent, group 3, 3209 μg, read-out: drug concentration in tissue proximal to stented region
[6] = arterial tissue distal to stented region (unstented), 1070 μg, 10.0×28 mm stent, 1070 μg, read-out: drug concentration in tissue distal to stented region
[7] = arterial tissue of stented region, 1070 μg, 8.0×28 mm stent, group 2, 1070 μg Lot #2, read-out: drug concentration in tissue of stented region
[8] = arterial tissue of stented region, 1070 μg, 10.0×28 mm stent, 1070 μg, read-out: drug concentration in tissue of stented region
[9] = arterial tissue of the stented region, other: drug-eluting stent implanted in iliofemoral arteries, 1070 μg, 10.0×28 mm stent, 1070 μg, read-out: drug concentration in tissue of stented region
[10] = arterial tissue proximal to stented region (unstented), 1070 μg, 10.0×28 mm stent, 1070 μg, read-out: drug concentration in tissue proximal to stented region
[11] = arterial tissue, distal stented region (D), 7.0×100 mm stent, read-out: Mean Arterial Tissue Concentration, D distal stented region
[12] = arterial tissue, medial stented region (C), 7.0×100 mm stent, read-out: Mean Arterial Tissue Concentration, C medial stented region
[13] = arterial tissue, proximal stented region (B), 7.0×100 mm stent, read-out: Mean Arterial Tissue Concentration, B proximal stented region
[14] = arterial tissue, stented region, 3209 μg, 8.0×28 mm stent, group 3, 3209 μg, read-out: drug concentration in tissue of stented region
[15] = arterial tissue, unstented segment distal to stented region, 1070 μg, 8.0×28 mm stent, group 2, 1070 μg Lot #2, read-out: drug concentration in tissue distal to stented region
[16] = other: drug-eluting stent implanted in iliofemoral arteries, 1070 μg, 10.0×28 mm stent, 1070 μg, read-out: drug concentration in tissue distal to stented region
[17] = other: drug-eluting stent implanted in iliofemoral arteries, 1070 μg, 10.0×28 mm stent, 1070 μg, read-out: drug concentration in tissue proximal to stented region

## CO[C@H]1C[C@@H]2CC[C@@H](C)[C@@](O)(O2)C(=O)C(=O)N2CCCC[C@H]2C(=O)O[C@H]([C@H](C)C[C@@H]2CC[C@@H](OCCO)[C@H](OC)C2)CC(=O)[C@H](C)/C=C(\C)[C@@H](O)[C@@H](OC)C(=O)[C@H](C)C[C@H](C)/C=C/C=C/C=C/1C [everolimus, 40-O-(2-hydroxyethyl)-rapamycin]
7×100 mm stent, 3777 μg everolimus
  tissue Cmax: ≥ 16347 ng/g
[1]
  tissue Cmax: ≥ 12946 ng/g
  tissue Tmax: 72 h
8×28 mm stent, 1070 μg everolimus (second aspect, matches group 2)
  tissue Cmax: ≥ 8709 ng/g
8×28 mm stent, 3209 μg everolimus
  tissue Cmax: ≥ 22027 ng/g
[2]
  tissue Cmax: ≥ 6607 ng/g
  tissue Tmax: 72 h
Arterial tissue of the stented vessel, 1070 ug, 8×28 mm stent, 1070 μg everolimus (second aspect, matches group 2)
  Tmax: 72 h
Arterial tissue of the stented vessel, 3209 ug, 8×28 mm stent, 3209 μg everolimus
  Tmax: 72 h
Arterial tissue, 3777 ug, 7×100 mm stent, 3777 μg everolimus
  Tmax: 72 h
[3]
  concentration at 3 days: 533 ng/g
  concentration at 7 days: 104 ng/g
  concentration at 28 days: 50 ng/g
  concentration at 56 days: 10 ng/g
  concentration at 90 days: 16 ng/g
[4]
  concentration at 3 days: 856 ng/g
  concentration at 7 days: 910 ng/g
  concentration at 14 days: 1120 ng/g
  concentration at 28 days: 414 ng/g
  concentration at 90 days: 63 ng/g
[5]
  concentration at 3 days: 520 ng/g
  concentration at 7 days: 698 ng/g
  concentration at 14 days: 307 ng/g
  concentration at 28 days: 136 ng/g
  concentration at 90 days: 55 ng/g
[6]
  concentration at 7 days: 208 ng/g
  concentration at 14 days: 251 ng/g
  concentration at 28 days: 86 ng/g
[7]
  concentration at 3 days: 8710 ng/g
  concentration at 7 days: 3590 ng/g
  concentration at 28 days: 1850 ng/g
  concentration at 56 days: 2190 ng/g
  concentration at 90 days: 1270 ng/g
[8]
  concentration at 14 days: 4140 ng/g
  concentration at 28 days: 3930 ng/g
[9]
  concentration at 3 days: 6610 ng/g
  concentration at 7 days: 5100 ng/g
  concentration at 90 days: 2300 ng/g
[10]
  concentration at 14 days: 40 ng/g
  concentration at 28 days: 12 ng/g
[11]
  concentration at 3 days: 12400 ng/g
  concentration at 7 days: 9630 ng/g
  concentration at 14 days: 6530 ng/g
  concentration at 28 days: 4280 ng/g
  concentration at 90 days: 2400 ng/g
[12]
  concentration at 3 days: 16300 ng/g
  concentration at 7 days: 11400 ng/g
  concentration at 14 days: 5240 ng/g
  concentration at 28 days: 4150 ng/g
  concentration at 90 days: 2700 ng/g
[13]
  concentration at 3 days: 10900 ng/g
  concentration at 7 days: 7890 ng/g
  concentration at 14 days: 4820 ng/g
  concentration at 28 days: 3620 ng/g
  concentration at 90 days: 2210 ng/g
[14]
  concentration at 3 days: 22000 ng/g
  concentration at 7 days: 17200 ng/g
  concentration at 14 days: 16500 ng/g
  concentration at 28 days: 13200 ng/g
  concentration at 90 days: 2460 ng/g
[15]
  concentration at 3 days: 1550 ng/g
  concentration at 7 days: 435 ng/g
  concentration at 28 days: 73 ng/g
  concentration at 56 days: 25 ng/g
  concentration at 90 days: 11 ng/g
[16]
  concentration at 3 days: 278 ng/g
  concentration at 90 days: 8 ng/g
[17]
  concentration at 3 days: 100 ng/g
  concentration at 7 days: 37 ng/g
  concentration at 90 days: 7 ng/g
7.0×100 mm stent, read-out: Mean Arterial Tissue Concentration, A non-stented region proximal to stented region
  concentration at 3 days: 269 ng/g
7.0×100 mm stent, read-out: Mean Arterial Tissue Concentration, E non-stented region distal to stented region
  concentration at 3 days: 263 ng/g
